Reference: patent publication US20150224164A1, “TREATMENT OF AUTISM SPECTRUM DISORDERS USING GLYCYL-L-2-METHYLPROLYL-L-GLUMATIC ACID” (Neuren Pharmaceuticals Limited, priority 2013, published 2015)
Where two headings read alike, the source gives them in different places. Where a SMILES comes first, the peptide text is derived from it.

What was measured:
[1] = Pharmacokinetic studies, plasma half-life; format: in vivo; conditions: rat
Method: The ability of the rats to remember or to relearn the original platform location was tested four weeks after original training. This means that residual drug would have been washed out for a minimum of 7 days in the case of the 3-week pumps, and 21 days in the case of the 1-week pumps. The retention testing procedure was identical to that of acquisition. Pharmacokinetic studies indicate that the plasma concentration of subcutaneously administered G-2-MePE rose to a peak and then declined with an approximately first order kinetic pattern, with a plasma half-life (t ½) of between about 30 and 60 minutes. Thus, by the time the retention study was performed, at least 7 days after removal of the G-2-MePE containing minipumps, nearly all of the G-2-MePE had been cleared from the animals' circulation.

[2] = test system: MeCP2 deficient mice
Method: We treated hemizygous MeCP2(1lox) male mice with 20 mg/kg/day of G-2-MePE or saline, (0.01% BSA, n=15 per group in survival experiment and n=20 in the LTP experiment). The treatments were administered intraperitoneally from 4 weeks after birth. For the survival experiments the treatment was maintained through the course of the experiment. For the LTP experiment the mice were treated until week 9 when they were used for slice preparation.
MeCP2 deficient mutant mice develop RTT symptoms at about 4-6 weeks of age and die between 10-12 weeks (Chen et al., 2001. Nat Genet 27: 327-331). We compared the survival of the wild type controls and the MeCP2 deficient animals in vehicle- and G-2-MePE-treated groups. Survival was measured weekly from start of treatment (4 weeks) and used to produce Kaplan-Meier survival curves to show the proportion of mice that survived (y axis) at each weekly interval (x axis) (see FIG. 22).

[3] = test system: MeCP2 knockout mice; test: Nocturnal locomotor activity (Example 10); format: in vivo, mouse; conditions: after 6 weeks; 20 mg/kg i.p. daily
Method: Spontaneous motor activity is measured by using an infrared beam-activated movement-monitoring chamber (Opto-Varimax-MiniA; Columbus Instruments, Columbus, Ohio). For each experiment, a mouse is placed in the chamber at least 3 h before recordings started. Movement is monitored during the normal 12-h dark cycle (7 p.m. to 7 a.m.). One dark cycle per animal per time point is collected.

[4] = test system: fmr1 knockout mice; test: Open field test, fmr1 knockout mice; format: in vivo, mouse; conditions: 100 mg/kg i.p. 28 days
Method: 1. fmr1 KO+Vehicle (saline) 2. Wt+Vehicle (saline) 3. fmr1 KO+G-2-MePE (100 mg/kg in saline) 4. Wt+G-2-MePE (100 mg/kg in saline).
(§1) G-2-MePE was administered at the dose of 100 mg/kg i.p. in 0.1 ml saline, once daily for 28 days. Vehicle-treated animals were injected with 0.1 ml saline daily for 28 days. Thereafter, drug or vehicle treatments were stopped and animals were tested on successive days until all tests were completed. Finally, the animals were sacrificed for determining expression of pAkt and pERK
The open field is a grey PVC enclosed arena 50×30 cm divided into 10 cm squares. Mice were brought to the experimental room 5-20 min before testing. A mouse was placed into a corner square facing the corner and observed for 3 min. The number of squares entered (whole body) and rears (both front paws off the ground, but not as part of grooming) were counted. The latency to the first rearing (rear) was also noted. The movement of the mouse around the field was recorded with a video tracking device for 300 s (vNT4.0, Viewpoint). The latency for the mouse to enter the brightest, central part of the field total time spent in this central region, and total activity (in terms of path length in centimeters), were recorded in each trial, the initial exposure, 10 min after the initial exposure and 24 h after the initial exposure.
During exposure to the open field chamber mice habituated to the environment and thus explored less, decreasing the amount movement shown over time. Movement and rearing were recorded during the 3 exposures. Failures to reduce locomotion or rearing at 10 minutes and 24 hours indicated deficits in short and long term memory, respectively.

[5] = test system: fmr1 knockout mice; test: Elevated plus maze, fmr1 knockout mice; format: in vivo, mouse
Method: G-2-MePE was administered at the dose of 100 mg/kg i.p. in 0.1 ml saline, once daily for 28 days. Vehicle-treated animals were injected with 0.1 ml saline daily for 28 days. Thereafter, drug or vehicle treatments were stopped and animals were tested on successive days until all tests were completed. Finally, the animals were sacrificed for determining expression of pAkt and pERK The Elevated Plus Maze (EPM) is a further test system for examining anxiety and locomotor activity. The EPM was built according to the description of Lister (Lister 1987). Briefly, the maze consisted of two open and two closed arms opposite each other in a plus shape, raised above floor height. The open arms were more exposed and therefore more anxiogenic. Wild-type mice therefore spent more time in the closed arms and visited them more. Mice were tested for 5 min and their behaviour was recorded. Measures taken included time spent in the arms and the center of the maze, and number of arm entries.

[6] = test system: fmr1 knockout mice; test: Contextual fear conditioning, fmr1 knockout mice; format: in vivo, mouse; conditions: fmr1 KO; 100 mg/kg i.p. 28 days
Method: as §1
Contextual fear conditioning is the most basic of the conditioning (learning) procedures. It involves placing the animal in a novel environment (dark chamber), providing an aversive stimulus (a 1-sec electric shock at 0.2 mA to the paw), and then removing it. […] Freezing is a species-specific response to fear and is defined as absence of movement except for respiration.
The clinical manifestation of Fragile X Syndrome is mental retardation in which learning and memory may be profoundly impaired. We tested G-2-MePE and vehicle treated fmr1 KO and wild-type animals in a fear-conditioning task in which we measured freezing behavior in response to context. […] Before the test, we observed the mice for their reactions to a 1-sec foot shock at 0.2 mA, and we noted vocalizations, jumping behavior, and excessive running in both genotypes as evidence that they had detected the stimulus.

Question: With `C[C@@]1(C(=O)N[C@@H](CCC(=O)O)C(=O)O)CCCN1C(=O)CN` [Example G-2-MePE, Glycyl-L-2-methylprolyl-L-glutamic acid] (HELM PEPTIDE1{G.[C[C@@]1(C(=O)[*:2])CCCN1[*:1]].E}$$$$V2.0) as the compound, how does the half-life ([1]; in vivo, read-out: plasma half-life in vivo) read?
Answer: ~30 min

Question: And the half-life ([1]; sc, subcutaneously administered, read-out: plasma half-life (t 1/2))?
Answer: 30 to 60 min

Question: What about the “time at which 50% of the animals survived” value ([2]; 20 mg/kg/day i.p. from 4 weeks, saline about 11 weeks) of the same compound?
Answer: about 15 weeks

Question: And the “time to 50 percent death, re-examination with control group re-run” value ([2]; 20 mg/kg/day i.p., controls 13.5 weeks)?
Answer: 16 weeks

Question: And the “time to 50 percent death, data initially presented” value ([2]; 20 mg/kg/day i.p., untreated 11 weeks)?
Answer: 16 weeks

Question: And the “safety in mecp2 mice” value ([2]; mouse, in vivo)?
Answer: No safety concerns

Question: What about the “nocturnal locomotor activity levels” value [3] of the same compound?
Answer: elevates these levels

Question: What about the rearing activity ([4]; fmr1 KO mice) of the same compound?
Answer: significantly reduced rearing activity

Question: And the “movement in the open field” value ([4]; fmr1 knockout mice, 2nd and 3rd trials)?
Answer: significantly reduce movement

Question: What about the rearing activity ([4]; wild-type mice) of the same compound?
Answer: no effect

Question: What about the “percent open arm entries” value ([5]; 100 mg/kg i.p. 28 days) of the same compound?
Answer: completely normalised

Question: And the “time spent in the centre” value ([5]; 28-days treatment)?
Answer: normalised

Question: What about the “freezing behavior, contextual fear conditioning” value [6] of the same compound?
Answer: normalizes the deficit
